Converted amounts (≈) assume the structure as drawn. Read-outs that look alike come from different tables or passages of the source.
How the values were obtained:
[1] = pKa
[2] = cited from earlier work; for Observed AUC(0-inf) Fasted / Observed Cmax Fasted / Observed AUC(0-inf) Fed / Observed Cmax Fed / Observed AUC Ratios (Fed/Fasted) / Observed Cmax Ratios (Fed/Fasted): ref published clinical data (Table I)
[3] = PBPK food effect modeling (Simcyp V17.1 and/or GastroPlus V9.5; Model 1 / Model 2); parameters: species or system human
[4] = not generated within this working group; ref Table I; cited from earlier work
[5] = parameters: method as in Table I reference column; settings: not generated within this working group; ref Table I; cited from earlier work
[6] = tested on: Caco-2; settings: not generated within this working group; ref Table I; cited from earlier work
[7] = Effective human jejunum permeability (Peff,man) used in the PBPK model; format: in vitro ADME; settings: human, 1 h
Protocol: Permeation rates of the compounds, including reference compounds, were measured in the apical-to-basolateral (AB) direction. The donor and receiver wells were sampled immediately after application of the compound to the donor well to determine baseline concentrations, and again after 1 h. Quantification was done using high-performance liquid chromatography combined with mass spectrometry (HPLC-MS/MS) analysis and monolayer integrity was verified by analyzing the receiver samples for LuY fluorescence in a plate reader.

[8] = Solubility measurement in biorelevant media (FaSSIF-V2, FeSSIF-V2); settings: 37 °C, thermodynamic from solid
[9] = Solubility measurement in aqueous buffer solutions; settings: pH 6.5, aqueous buffer, thermodynamic from solid
[10] = clinically observed PK change (AUC, Cmax) fed vs fasted, compiled by literature search
[11] = direction, AUC and/or Cmax ratio fed to fasted, BE criteria 0.8–1.25, ref drug label
[12] = FaSSIF-V2 (fasted state simulated intestinal fluid), FaSSIF solubility
[13] = FeSSIF-V2 (fed state simulated intestinal fluid), FeSSIF solubility

Structure (SMILES) | Observed AUC(0-inf) Fasted ([2]; Model 1) | Observed Cmax Fasted ([2]; Model 1) | Observed AUC(0-inf) Fed ([2]; Model 1) | Observed Cmax Fed ([2]; Model 1) | Observed AUC Ratios (Fed/Fasted) ([2]; Model 1) | Observed Cmax Ratios (Fed/Fasted) ([2]; Model 1) | Food Effect [2, 10] | Food Effect [2, 11] | AUC Ratio of Ratios (Sim'd / Obs'd) ([3]; Model 1) | Cmax Ratio of Ratios (Sim'd / Obs'd) ([3]; Model 1) | Solubility at pH 6.5 [4] | Observed AUC(0-inf) Fasted ([2]; Model 2) | Observed Cmax Fasted ([2]; Model 2) | Observed AUC(0-inf) Fed ([2]; Model 2) | Observed Cmax Fed ([2]; Model 2) | Observed AUC Ratios (Fed/Fasted) ([2]; Model 2) | Observed Cmax Ratios (Fed/Fasted) ([2]; Model 2) | AUC Ratio of Ratios (Sim'd / Obs'd) ([3]; Model 2) | Cmax Ratio of Ratios (Sim'd / Obs'd) ([3]; Model 2) | pKa ([1]; pKa (b, basic)) | other results
CC(C)(CO)c1cc2cc(NC(=O)C3(c4ccc5c(c4)OC(F)(F)O5)CC3)c(F)cc2n1C[C@@H](O)CO [Tezacaftor] | 3.97 µg·h/mL | 2.34 µg/mL | 4.36 µg·h/mL | 1.89 µg/mL | 1.10 | 0.81 | None (none if no significant change in AUC and Cmax with food) | None (none if no significant change in AUC and Cmax with food) | 0.92 | 1.23 | 110^^ μg/ml |  |  |  |  |  |  |  |  |  | pKa (ionisation state in words) [1]: Neutral; FaSSIF solubility [5]: 119^^ μg/ml; FeSSIF solubility [5]: 4783^^ μg/ml; Apparent permeability (Caco-2) [6]: 4.2 (Caco-2)^^ × 10^−6 cm/s
O=C1NC(=O)C(c2ccccc2)(c2ccccc2)N1 [Phenytoin] | 104 µg·h/mL | 4.92 µg/mL | 127 µg·h/mL | 6.95 µg/mL | 1.22 | 1.41 | Positive (positive if the ratio of fed > fasted) | Positive (positive if the ratio of fed > fasted) | 0.95 | 0.92 | 31^^ μg/ml | 104 µg·h/mL | 4.92 µg/mL | 127 µg·h/mL | 6.95 µg/mL | 1.22 | 1.41 | 0.99 | 1.00 |  | pKa ([1]; pKa (a, acidic)): 8.06; food effect (FE) direction ([2]; ref drug label): positive FE; Effective permeability [7]: 4000 nm/s; FaSSIF solubility [5]: 39.6^^ μg/ml; FeSSIF solubility [5]: 49.5^^ μg/ml
CN/C(=N/CCSCc1nc[nH]c1C)NC#N [Cimetidine] | 4.88 µg·h/mL | 0.9 µg/mL | 4.15 µg·h/mL | 0.81 µg/mL | 0.85 | 0.90 | None (none if no significant change in AUC and Cmax with food) |  | 1.14 | 0.87 |  | 5.35 µg·h/mL | 0.89 µg/mL | 4.58 µg·h/mL | 0.8 µg/mL | 0.86 | 0.90 | 1.19 | 1.10 | 6.9 | solubility [8, 12]: 22000 µg/mL (≈ 87.2 mM); solubility [8, 13]: 21500 µg/mL (≈ 85.2 mM); Apparent permeability (Caco-2) [6]: 5.4 (Caco-2)^^ × 10^−6 cm/s
COCCc1ccc(OCC(O)CNC(C)C)cc1 (stereo not drawn) [Metoprolol] | 0.302 µg·h/mL | 0.111 µg/mL | 0.426 µg·h/mL | 0.148 µg/mL |  |  |  |  |  |  |  |  |  |  |  |  |  |  |  |  | solubility [9]: 17100 µg/mL (≈ 64 mM)
Cc1[nH]c2ccccc2c1CCNCc1ccc(/C=C/C(=O)NO)cc1 [Panobinostat] | 0.148 µg·h/mL | 0.0175 µg/mL | 0.124 µg·h/mL | 0.0098 µg/mL | 0.84 | 0.56 | None (none if no significant change in AUC and Cmax with food) | None (none if no significant change in AUC and Cmax with food) | 1.25 | 0.61 | 261^^ μg/ml | 0.128 µg·h/mL | 0.0175 µg/mL | 0.108 µg·h/mL | 0.0098 µg/mL | 0.85 | 0.56 | 1.25 | 1.42 | 9 | pKa ([1]; pKa (a, acidic)): 8.35; Effective permeability [7]: 2300 nm/s; FaSSIF solubility [5]: 140^^ μg/ml; FeSSIF solubility [5]: 230^^ μg/ml; Apparent permeability (Caco-2) [6]: 11 (Caco-2)^^ × 10^−6 cm/s
CCOC(=O)C1=C[C@@H](OC(CC)CC)[C@H](NC(C)=O)[C@@H](N)C1 [Oseltamivir] | 6.22 µg·h/mL | 0.551 µg/mL | 6.07 µg·h/mL | 0.441 µg/mL | 0.98 | 0.80 |  | None (none if no significant change in AUC and Cmax with food) | 1.09 | 1.34 | 25,000^^ μg/ml |  |  |  |  |  |  |  |  | 7.7 | 
CC1(C)CCC(CN2CCN(c3ccc(C(=O)NS(=O)(=O)c4ccc(NCC5CCOCC5)c([N+](=O)[O-])c4)c(Oc4cnc5[nH]ccc5c4)c3)CC2)=C(c2ccc(Cl)cc2)C1 [Venetoclax] |  |  |  |  |  |  | Positive (positive if the ratio of fed > fasted) | Positive (positive if the ratio of fed > fasted) |  |  |  | 2.08 µg·h/mL | 0.15 µg/mL | 7.1 µg·h/mL | 0.5 µg/mL | 3.41 | 3.33 | 0.79 | 0.75 | 10.3 | solubility [8, 12]: 0.0337 µg/mL (≈ 3.88e-05 mM); solubility [8, 13]: 26.4 µg/mL (≈ 0.0304 mM); solubility [9]: 6 µg/mL (≈ 0.00691 mM); pKa ([1]; pKa (a, acidic)): 3.4
Cc1ccc(-c2ncc(Cl)cc2-c2ccc(S(C)(=O)=O)cc2)cn1 [Etoricoxib] | 44.4 µg·h/mL | 2.89 µg/mL | 42.2 µg·h/mL | 1.89 µg/mL | 0.95 | 0.65 | Negative (negative if ratio fasted > fed) | Negative (negative if ratio fasted > fed) | 1.05 | 0.97 | 67^^ μg/ml | 44.4 µg·h/mL | 2.89 µg/mL | 42.2 µg·h/mL | 1.89 µg/mL | 0.95 | 0.65 | 1.06 | 1.25 | 4.5 | food effect (FE) direction ([2]; ref drug label): negative FE; Effective permeability [7]: 4800 nm/s; FaSSIF solubility [5]: 67^^ μg/ml; FeSSIF solubility [5]: 95^^ μg/ml; Apparent permeability (Caco-2) [6]: 52.3 (Caco-2)^^ × 10^−6 cm/s

— article PMC7520419 (The AAPS Journal, 2020)
